Patent publication US20220242851A1, “CRYSTAL FORM AND SALT OF QUINAZOLINE COMPOUND AND PREPARATION METHOD THEREOF” (SHENZHEN JINRUI FOUNDATION BIOTECH CO., LTD, priority 2019, published 2022)

How the values were obtained:
[1] = Solid stability assay (XRPD, HPLC); assay type: physicochemical
Procedure: Sample concentration: 0.5 mg/mL
According to influencing factor and accelerated assay conditions, about 5 mg of the crystal form B of the compound of formula (I) was accurately weighed and placed in a dry and clean glass bottle to form a thin layer as a formal assay sample in duplicate. The sample was placed under an influencing factor assay condition (60° C., 92.5% RH) and accelerated conditions (40° C./75% RH and 60° C./75% RH). The sample was fully exposed, and covered with aluminum foil paper punched with small holes. In addition, a small amount of sample was placed in a 40 mL glass sample bottle under the same conditions to determine the crystal state. The sample placed under light irradiation condition (1.2×10^6 Lux•hr/near ultraviolet 200 w•hr/m^2) was fully exposed at room temperature.

[2] = tested on: subcutaneous xenograft tumor of human gastric cancer NCI-N87 cells; assay: In vivo pharmacodynamics, NCI-N87 subcutaneous xenograft (Assay Example 4); design: species or system mouse; details: 0.5 mg/kg, compared with the vehicle control group
Procedure: (§1) Purpose of the assay: in vivo efficacy of the assay compound disclosed herein on subcutaneous xenograft tumor of human gastric cancer NCI-N87 cells in a BALB/c nude mouse model was evaluated.
Animals of the assay: female BALB/c nude mice, 6-8 weeks old, weighted 18-22 grams; supplier: shanghai sippr bk laboratory animals Ltd.
(§2) Human gastric cancer NCI-N87 cells were cultured in monolayer in vitro. The culture conditions were RPMI-1640 medium plus 10% fetal bovine serum, 100 U/mL penicillin, 100 μg/mL streptomycin, 37° C., 5% CO2. The passaging was performed by conventional digestion with trypsin-EDTA twice a week. When the cell saturation was 80%-90%, the cells were collected, counted and inoculated.
0.2 mL (10×10^6) of NCI-N87 cells (PBS+Matrigel, 1:1) were inoculated subcutaneously on the right back of each mouse. […]
The assay index was to investigate whether tumor growth is inhibited, delayed or cured. Tumor diameter was measured twice a week with a vernier caliper. […]
The antitumor efficacy of the compounds was evaluated by TGI (%) or tumor proliferation rate T/C (%). […]
Statistical analysis included the mean and standard error of mean (SEM) of tumor volume at each time point in each group (See Table 14 for specific data). […] The comparison between groups was analyzed by T-test, and the comparison among three or more groups was analyzed by one-way ANOVA. […]

[3] = tested on: subcutaneous xenograft tumor of human esophageal carcinoma OE21 cells; assay: In vivo pharmacodynamics, OE21 subcutaneous xenograft (Assay Example 5); design: species or system mouse
Procedure: Purpose of the assay: in vivo efficacy of the assay compound on subcutaneous xenograft tumor of human esophageal carcinoma OE21 cells in a BALB/c nude mouse model was evaluated.
Animals of the assay: female BALB/c nude mice, 6-8 weeks old, weighted 17-23 grams; supplier: shanghai sippr bk laboratory animals Ltd.
as §2, with “esophageal carcinoma OE21” for “gastric cancer NCI-N87”, “U/mL streptomycin and 2 mM glutamine,” for “μg/mL streptomycin,”
0.1 ml […] OE21 cells (PBS) were inoculated subcutaneously on the right back of each mouse. When the average tumor volume reached 112 mm^3, administration to each group was started.
The assay compound was formulated into a 0.15 mg/mL to 0.3 mg/mL clear or suspension solution in the solvents of 10% NMP+10% ethylene glycol stearate+80% water.
The assay index was to investigate whether tumor growth is inhibited, delayed or cured. Tumor diameter was measured twice a week with vernier caliper. The calculation formula of tumor volume was: V=0.5a×b^2, wherein a and b represent the long and short diameters of tumor, respectively.
The antitumor efficacy of the compounds was evaluated by TGI (%) or relative tumor proliferation rate T/C (%). TGI (%) reflects the tumor growth inhibition rate. TGI (%) was calculated as follows: TGI (%)=[(1−average tumor volume at the end of administration for a certain treatment group−average tumor volume at the beginning of administration for this treatment group))/(average tumor volume at the end of treatment for a vehicle control group−average tumor volume at the beginning of administration for this vehicle control group)]×100%.
Relative tumor proliferation rate T/C (%): the calculation formula was as follows: T/C (%)=average tumor volume at the end of administration for a certain treatment group/average tumor volume at the end of treatment for the vehicle control group×100%.
Statistical analysis included the mean and standard error of mean (SEM) of tumor volume at each time point in each group. One-way ANOVA was used for comparison among three or more groups. […] SPSS 17.0 was used for all data analysis. p<0.05 was considered a significant difference.

CYP3A4 = biological target: T1, CYP3A4 (Homo sapiens, UniProt P08684); assay: Inhibition of CYP enzyme activity in human liver microsome, CYP3A4; assay type: in vitro ADME
T1 construct: in the assay of CYP enzyme activity in human liver microsome; from tissue; host or cells: human liver microsome
From the text: (§3) The results of the compound disclosed herein and the reference compound Poziotinib in the assay of CYP enzyme activity in human liver microsome were shown in the following table (Table 17).

[4] = tested on: subcutaneous xenograft tumor of human gastric cancer NCI-N87 cells; assay: In vivo pharmacodynamics, NCI-N87 subcutaneous xenograft (Assay Example 3); design: species or system mouse; details: 0.8 mg/kg, compared with the vehicle control group
Procedure: as §1
Animals of the assay: female BALB/c nude mice, 6-8 weeks old, weighted 18-22 grams; supplier: Shanghai Ling Chang Biotechnology Co., Ltd.
as §2, with “U/mL streptomycin and 2 mM glutamine,” for “μg/mL streptomycin,”, “by the” for “by”
0.2 mL (10×10^6) of NCI-N87 cells (PBS+Matrigel, 1:1) were inoculated subcutaneously on the right back of each nude mouse. When the average tumor volume reached 158 mm^3, administration to each group was started.
The assay compounds were formulated into 0.04 mg/mL and 0.08 mg/mL clear solution in the solvents of 10% NMP (N-methylpyrrolidone)+10% ethylene glycol stearate+80% water.
The assay index was to investigate whether tumor growth is inhibited, delayed or cured. Tumor diameter was measured twice a week with a vernier caliper. The calculation formula of tumor volume was: V=0.5a×b^2, wherein a and b represent the long and short diameters of tumor, respectively.
The antitumor efficacy of the compounds was evaluated by TGI (%) or tumor proliferation rate T/C (%). TGI (%) reflects tumor growth inhibition rate. […]
Statistical analysis included mean and standard error of mean (SEM) of tumor volume at each time point in each group (See Table 13 for specific data). […] The comparison between groups was analyzed by T-test, and the comparison among three or more groups was analyzed by one-way ANOVA. […]

CYP1A2 = biological target: T2, CYP1A2 (Homo sapiens, UniProt P05177); assay: Inhibition of CYP enzyme activity in human liver microsome, CYP1A2; assay type: in vitro ADME; details: human liver microsome
T2 construct: in the assay of CYP enzyme activity in human liver microsome; from tissue; host or cells: human liver microsome
T2 sequence (P05177 1-516): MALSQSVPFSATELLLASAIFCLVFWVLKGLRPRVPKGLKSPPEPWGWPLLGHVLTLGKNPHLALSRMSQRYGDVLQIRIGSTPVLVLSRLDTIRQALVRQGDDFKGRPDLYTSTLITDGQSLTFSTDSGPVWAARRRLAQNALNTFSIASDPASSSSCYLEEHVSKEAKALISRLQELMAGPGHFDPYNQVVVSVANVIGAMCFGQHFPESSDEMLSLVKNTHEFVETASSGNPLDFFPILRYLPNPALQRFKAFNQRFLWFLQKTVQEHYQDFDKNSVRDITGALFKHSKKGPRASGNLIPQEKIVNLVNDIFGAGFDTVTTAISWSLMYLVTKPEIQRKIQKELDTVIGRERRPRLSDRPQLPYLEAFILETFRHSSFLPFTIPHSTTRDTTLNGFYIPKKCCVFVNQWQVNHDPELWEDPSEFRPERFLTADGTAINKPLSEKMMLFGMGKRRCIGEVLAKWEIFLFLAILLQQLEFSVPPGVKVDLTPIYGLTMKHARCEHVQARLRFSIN
From the text: as §3

T1 sequence (P08684 whole entry): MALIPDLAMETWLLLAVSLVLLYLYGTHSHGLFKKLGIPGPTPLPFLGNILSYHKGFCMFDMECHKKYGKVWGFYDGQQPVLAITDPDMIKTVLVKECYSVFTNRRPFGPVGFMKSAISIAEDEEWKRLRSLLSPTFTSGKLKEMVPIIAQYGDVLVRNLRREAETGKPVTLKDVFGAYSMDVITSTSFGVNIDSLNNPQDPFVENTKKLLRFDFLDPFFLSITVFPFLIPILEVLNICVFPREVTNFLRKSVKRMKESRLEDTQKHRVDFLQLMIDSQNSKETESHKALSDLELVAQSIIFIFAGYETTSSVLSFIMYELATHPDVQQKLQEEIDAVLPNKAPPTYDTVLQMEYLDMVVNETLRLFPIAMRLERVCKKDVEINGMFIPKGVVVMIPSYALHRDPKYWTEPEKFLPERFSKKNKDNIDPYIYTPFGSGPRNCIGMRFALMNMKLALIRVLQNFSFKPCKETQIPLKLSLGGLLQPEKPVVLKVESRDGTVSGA

For `C=CC(=O)N1[C@@H]2CC[C@H]1C[C@H](Nc1cc3c(Nc4ccc(Cl)c(Cl)c4F)ncnc3cc1OC)C2.O=C(O)/C=C\C(=O)O`, the Total impurity content ([1]; 40° C., 75% relative humidity, open, 1 month) was 1.62%, the Total impurity content ([1]; 40° C., 75% relative humidity, open, 2 months) was 1.52% and the Total impurity content ([1]; 40° C., 75% relative humidity, open, 3 months) was 1.52%. It also gave a Total impurity content ([1]; 40° C., 75% relative humidity, open, 10 days) of 1.64%, a Total impurity content ([1]; 60° C., 75% relative humidity, open, 1 month) of 1.62% and a Total impurity content ([1]; 60° C., 75% relative humidity, open, 10 days) of 1.63%. For the same compound, the Total impurity content ([1]; High humidity (25° C./92.5% relative humidity, open), 5 days) was 1.65%, the Total impurity content ([1]; High humidity (25° C./92.5% relative humidity, open), 10 days) was 1.65% and the Total impurity content ([1]; High temperature (60° C., open), 5 days) was 1.64%. It also gave a Total impurity content ([1]; High temperature (60° C., open), 10 days) of 1.64%, a Total impurity content ([1]; Initial, 0 day) of 1.64% and a Total impurity content ([1]; Light irradiation (1.2 × 10^6 Lux · hr/near ultraviolet 200 w · hr/m^2, open), 10 days) of 1.66%. For the same compound, the Total impurity content ([1]; Protected from light, 10 days) was 1.64% and the “solid stability (in words)” value ([1]; conclusion over all conditions) was “good stability”.

With `C=CC(=O)N1CCC(Nc2cc3c(Nc4ccc(F)c(Cl)c4)ncnc3cc2OC)CC1` [Control compound 2, reference compound] the “tumor inhibitory effect (in words)” value [2] was “not significant”.

For `C=CC(=O)N1CCC(Oc2cc3c(Nc4ccc(Cl)c(Cl)c4F)ncnc3cc2OC)CC1` [Poziotinib, reference compound], the “body weight and clinical signs (in words)” value ([3]; 2/1.5 mg/kg) was “varying degrees of body weight loss and dandruff”, the “tumor inhibitory effect (in words)” value ([3]; 2/1.5 mg/kg, compared with the vehicle control group) was “significant tumor inhibitory effect” and the “Tumor volume (Day 21)” value ([3]; 2/1.5 mg/kg, Day 21, Mean + SEM) was 57 ± 7 mm3. For the same compound, the “body weight loss of individual mice (administration discontinued)” value ([3]; 2/1.5 mg/kg, from the 6th and 7th day, 1 mouse, then 3 mice) was “more than 15%”, the “effect on the body weight of mice (in words)” value ([3]; discussion, high-dose group) was “the body weight loss of mice was significant” and the “dark yellow urine, suggestion of toxicity (in words)” value ([3]; mouse, in vivo) was “mice in the whole group had dark yellow urine”. The “inhibitory activity on CYP3A4 (in words)” value (CYP3A4) was “no inhibitory activity”, the “tumor inhibitory effect (in words)” value [4] was “significant tumor inhibitory effect” and the “inhibitory activity on CYP1A2 (in words)” value (CYP1A2) was “no inhibitory activity”.
